Laboratory results from US10568320B2, “Biologically-based control methods for insect pests” (The United States of America, as represented by the …, priority 2017, dated 2020).

Columns and labels:
[1] = system: fire ant workers; experiment: Example 14 feeding experiments: fire ant worker mortality
[2] = system: fire ant workers; experiment: Five biogenic amines fed to fire ant workers as droplets; type: in vivo, Solenopsis invicta; details: 1% (w/v) as HCl salts in 10% sucrose, 48 h, 60 workers
Description: Tyramine is one of five biogenic amines that may be found in insects (e.g., dopamine, histamine, octopamine, serotonin, and tyramine). The experiment in this example tests whether fire ant worker mortality effects observed with tyramine may be a general result of the ants ingesting greater than normal amounts of a biogenic amine. To test this hypothesis groups of 20 fire ant worker ants were starved for 24 hours and fed a 1% (w/v) biogenic amine in 10% sucrose solution. Treatments and sucrose were presented to the worker ants as a 25 microliter droplet on a 2 cm^2 piece of silicon treated filter paper. Each treatment and control were performed in triplicate for a total of 60 worker ants per treatment and control. Mortality was monitored for the first 7-8 h after introduction of the sucrose solutions, then at 24 h. The feeding/monitoring sequence was repeated for another 24 h period for a total of 48 h. The results are shown in FIG. 12A-12B in the form of Kaplan-Meier mortality curves.

[3] = system: MFA mid- and hind-gut
[4] = system: mature female alates (MFAs); experiment: Injection into MFA abdomen: ovariole development and egg-laying; type: in vivo, Solenopsis invicta; details: 100 nL of a 1.0% saline solution (1 microgram) injected
Text: Two measures of ovariole development were used. […] Measurement of ovariole area in the same samples gave a quantitative measure of ovariole development. […] Within the context of a colony this effect would be in direct conflict with the colony queen. Eggs laid would not be fertile and therefore develop into males. Queen pheromone is also produced by […], which would act to reduce the fecundity of the colony queen. For example, in polygyne colonies the higher the number of queens the lower is the mean egg-laying rate/queen due to the presence of excess queen pheromone (see Vander Meer, R. K., et al. (1992), A comparison of queen oviposition rates from monogyne and polygyne fire ant, Solenopsis invicta, colonies.

[5] = Solubility in aqueous solution; type: physicochemical; details: solution
[6] = system: monogyne queenright colonies; experiment: Feeding of monogyne queenright colonies: worker and queen mortality; type: in vivo, Solenopsis invicta; details: 1% in 10% sucrose, 27 d
Text: FIGS. 24A and 24B show results for the sucrose (10%) control and two treatments, tyramine (1%) and N-methyl-tyramine (1%), both dissolved in 10% sucrose. The control and test colonies were monogyne queenright colonies, containing a single queen, brood and workers started in the laboratory from newly mated queens collected in the field. The mean number of workers per colony was 8,400±400. […] Previous experiments used queenless sub-colonies, rather than the queenright colonies in these experiments. The mortality effect on colony queens was unexpected, since worker fire ants are completely sterile and cannot reproduce even if the queen dies. Therefore, when the reproductive queen dies no more brood is produced and the colony is no longer functional—it is considered dead. […] Therefore, 80% of the treated colonies were considered dead.

[7] = system: female sexuals (alates); experiment: Worker attraction to poison sac extracts of dealates (queen pheromone bioassay); type: in vivo, Solenopsis invicta; details: extracts from dealates of fed sub-colonies
[8] = system: mature female alates (MFAs); experiment: Injection into MFA abdomen: wing loss (dealation); type: in vivo, Solenopsis invicta; details: 100 nL of a 1.0% saline solution injected into the MFA abdomen
Text: While the MFAs are in their mother colony, the queen releases primer pheromones that inhibit wing loss (sometimes referred to herein as “dealation”), development of ovaries, wing muscle histolysis, and pheromone production. This release prevents reproductive/resource competition between the MFAs and the mother queen. If MFAs are removed from the colony, they become disinhibited and eventually (e.g., within days) lose their wings and start the physiological processes (e.g., wing loss and ovariole development). MFA also become disinhibited when they leave the colony on a mating flight; however, in this case the now NMQs lose their wings within minutes of landing and initiate the above mentioned physiological/biochemical changes (e.g., wing loss and ovariole development). We know from previous experiments that mating is the trigger, not mating flight initiation or the act of flying (Burns, S. N., et al. (2002) Identification and action of juvenile hormone III from sexually mature alate females of the red imported fire ant, Solenopsis invicta. Journal of Insect Physiology 48: 357-365; Burns, S. N., et al. (2005), The effect of age and social environment on dealation in Solenopsis invicta (Hymenoptera: Formicidae) female […]. […] Burns, S. N., et al. […]

[9] = system: 4th instar sexual larvae; experiment: Direct (hand) feeding of 4th instar sexual larvae; type: in vivo, Solenopsis invicta; details: fed once, 80 nL max of about 1% w/v in 10% sucrose; N=10
Text: It was concluded that the 4th instar larvae are refractory to the mortality effects observed when workers are fed tyramine.

[10] = system: fire ant workers; experiment: Droplet feeding of worker groups: mortality over 24 h and concentration series; type: in vivo; details: about 1% in 10% sucrose
Description: To determine how quickly the tyramine and acetyl tyramide act, 60 workers were allowed to feed on tyramine (FIG. 8A) or acetyl tyramide (FIG. 8B) dissolved at about 1% in 10% sucrose solution. The control and treatments were presented to the worker ants as droplets on phase separation filter paper. Consumption of the droplets was readily observed. Mortality was monitored for each of the first 10 hours and then at 24 hours. […] Tyramine and acetyl tyramide had >50% and >40% mortality, respectively within the 24 h time period of the experiment. […] This distribution is a cornerstone of pest ant baits. To test this hypothesis, a similar experiment was conducted. Workers were allowed to feed on the treatment and control solutions and were then transferred to another container with unfed nestmates. In all cases, it was observed that the treatment fed workers regurgitated the treatment and sucrose solutions to their unfed nestmates through the classic mechanism of trophallaxis (data not shown). Thus, normal worker behavior necessary for bait development was not affected by the treatments under these experimental conditions.
One criteria for an effective pest ant Active Ingredient (AI) is maintenance of activity over 1-3 orders of magnitude, because as the bait is distributed from one ant to another the material is diluted. The AI must maintain activity until all individuals in the colony (e.g., workers, brood and sexuals including the queen) have received the AI. […] Journal of Economic Entomology 99(5): 1739-1748). The 0.01% had >24 h delay in mortality.

COc1ccccc1CCN [2-methoxy-phenethylamine]
fire ant worker mortality versus 10% sucrose control ([1]; 1.0% in 10% sucrose): No difference in mortality

NCCc1c[nH]cn1 [histamine]
worker mortality (Kaplan-Meier) [2]: did not result in significant mortality

CCCCCC(=O)NCCc1ccc(O)cc1 [hexanoyl tyramide]
degradation of the tyramide [3]: No degradation of the tyramide was observed | ovariole development, ovariole area, compared to controls [4]: not hexanoyl tyramide caused significant ovariole development | ovariole development, ovary rank 1-4, compared to the control [4]: significant ovariole development

NCCc1ccc(O)c(O)c1 [dopamine]
worker mortality (Kaplan-Meier) [2]: did not result in significant mortality

COc1cccc(CCN)c1 [3-methoxy-phenethylamine]
fire ant worker mortality versus 10% sucrose control ([1]; 1.0% in 10% sucrose): No difference in mortality

CNCCc1ccc(O)cc1 [N-methyl-tyramine (free base), N-methyl-tyramine]
solubility maximum [5]: 1% | fire ant worker mortality versus 10% sucrose control ([1]; 0.01% in 10% sucrose): significantly different from the 10% sucrose control | fire ant worker mortality versus 10% sucrose control ([1]; 0.1% in 10% sucrose): significantly different from the 10% sucrose control | fire ant worker mortality versus 10% sucrose control ([1]; 1.0% in 10% sucrose): significantly different from the 10% sucrose control | mortality at the two lower concentrations (0.1 and 0.01%) versus the 1.0% concentration ([1]; in 10% sucrose): significantly higher mortality than the 1.0% concentration | % worker mortality at the end of the experiment versus control [6]: significantly different from the corresponding controls | fate of colony queens (five replicates) [6]: all queen replicates (5) died | queen mortality at the end of the experiment versus control [6]: significantly different from the corresponding controls | colonies considered dead ([6]; five colonies): 100% | worker attraction to poison sac extracts compared among active treatments [7]: significantly greater worker attraction than poison sac extracts from tyramine treatments | worker attraction to poison sac extracts versus N,N-dimethyl tyramine treatment and controls [7]: significantly different from those from the N,N-dimethyl tyramine treatment and the sucrose and hexane controls

COc1ccc(CCN)cc1 [4-methoxy-phenethylamine]
fire ant worker mortality versus 10% sucrose control ([1]; 1.0% in 10% sucrose): No difference in mortality

NCC(O)c1ccc(O)cc1 (stereo not drawn) [octopamine]
worker mortality (Kaplan-Meier) [2]: did not result in significant mortality

CN(C)CCc1ccc(O)cc1 [N,N-dimethyl-tyramine]
fire ant worker mortality versus 10% sucrose control ([1]; 1.0% in 10% sucrose): no difference in mortality

CNCCc1ccc(O)cc1.Cl [N-methyl-tyramine (HCl)]
fire ant worker mortality versus 10% sucrose control ([1]; 0.01% in 10% sucrose): significantly different from the sucrose control | speed of worker mortality versus tyramine at the same concentration ([1]; 0.01%, p<0.01): significantly faster than the 0.01% tyramine | fire ant worker mortality versus 10% sucrose control ([1]; 0.1% in 10% sucrose): significantly different from the sucrose control | speed of worker mortality versus tyramine at the same concentration ([1]; 0.1%, p=0.22): not significantly faster than the 0.1% tyramine | fire ant worker mortality versus 10% sucrose control ([1]; 1.0% in 10% sucrose): significantly different from the sucrose control | speed of worker mortality versus tyramine at the same concentration ([1]; 1.0%, p<0.001): significantly faster worker mortality than the 1.0% tyramine | speed of action compared to the N-methyl tyramine free-base ([1]; in vivo): appears to be quicker acting

acetyl tyramide
dealation (wing loss) compared to the control [8]: significantly faster and inappropriate dealation | degradation of the tyramide [3]: No degradation of the tyramide was observed | mortality / sickness of 4th instar sexual larvae [9]: none of the acetyl tyramide treatments died or appeared sick | ovariole development, ovariole area, compared to controls [4]: caused significant ovariole development | ovariole development, ovary rank 1-4, compared to the control [4]: significant ovariole development | worker mortality compared with sucrose control (Kaplan-Meier, Log-rank) ([10]; 24 h): significantly greater worker mortality than the sucrose control | worker mortality within the 24 h time period ([10]; droplets, 60 workers): > 40%

Cl.NCCc1ccc(O)cc1 [tyramine HCl]
worker mortality (Kaplan-Meier) [2]: statistically greater mortality than the control and the other 4 biogenic amines | worker attraction to poison sac extracts compared among active treatments [7]: not different from tyramine or N-methyl tyramine | worker attraction to poison sac extracts versus N,N-dimethyl tyramine treatment and controls [7]: significantly different from those from the N,N-dimethyl tyramine treatment and the sucrose and hexane controls

NCCc1ccc(Br)cc1 [4-bromophenethylamine, 4-bromo-phenethylamine]
fire ant worker mortality versus 10% sucrose control ([1]; 1.0% in 10% sucrose): Significant, but low, worker mortality

NCCc1ccc(F)cc1 [4-flurophenethylamine]
fire ant worker mortality versus 10% sucrose control ([1]; 1.0% in 10% sucrose): Significant, but low, worker mortality

NCCc1c[nH]c2ccc(O)cc12 [serotonin]
worker mortality (Kaplan-Meier) [2]: did not result in significant mortality

NCCc1ccc(Cl)cc1 [4-chlorophenethylamine, 4-chloro-phenethylamine]
fire ant worker mortality versus 10% sucrose control ([1]; 1.0% in 10% sucrose): Significant, but low, worker mortality

COc1ccc(CCN)cc1Cl [3-chloro-4-methoxyphenethylamine]
fire ant worker mortality versus 10% sucrose control ([1]; 0.1% in 10% sucrose): significantly different from the 10% sucrose control | fire ant worker mortality versus 10% sucrose control ([1]; 1.0% in 10% sucrose): significantly different from the 10% sucrose control | mortality ([1]; 1.0 and 0.1% in 10% sucrose): about 8%
